Assay in all cases: DTP human tumour cell line panel, 48 h
In assay [1] the test system is HCC-2998 colon.
The test system of assay [2] is XF 498 CNS.
Assay [3] relates to KM20L2 colon.
Assay [4] has as its system DLD-1 colon.
Assay [5] relates to PC-3 prostate.
Assay [6] has as its system MCF7 breast.
Assay [7] deals with HS 578T breast.
For assay [8], the system named is MDA-MB-435.
Assay [9] relates to NCI/ADR-RES ovarian.
The test system of assay [10] is MDA-MB-231 breast.
Assay [11] relates to MDA-N.
The test system of assay [12] is BT-549 breast.

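Protocol summary: plate cells (96-well), add compound at 5 concentrations, incubate 48 h, interpolate endpoints linearly. The concentration for full growth arrest is given as TGI.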 Bounds are passed on as bounds.

Usually TGI stands for the concentration giving total growth inhibition. A low value points to greater sensitivity of the cells. As to `O=C(Nc1cccc([N+](=O)[O-])c1)C(=O)C(C(=O)c1ccccc1F)C1OC(=O)C2C=CC=CC21` (centres undefined), the total growth inhibition concentration (TGI) in assay [1], in assay [2], in assay [3] and in assay [4] was more than 100 µM in each case.
Regarding `C/C=C1/CN2CCC34c5ccccc5N(C)C23C2CC1C4(C(=O)OC)C(O)O2` (centres undefined), the TGI in [5], in assay [1], in assay [6], in [7], in [8] and in [9] was more than 100 µM in each case. Also, the TGI in [10], in [11] and in assay [12] was more than 100 µM throughout.
As to `NC(=O)Nc1ccc(C(=O)NCCCNC(=O)c2ccc(NC(N)=O)cc2)cc1`, the concentration for total growth inhibition (TGI) in assay [5], in [1], in assay [6], in assay [7], in assay [8] and in assay [9] was more than 100 µM each time. Moreover, the total growth inhibition concentration (TGI) in assay [11] and in assay [12] was more than 100 µM in each case.
For `Cc1c(NC(=O)c2cc([N+](=O)[O-])cc([N+](=O)[O-])c2)c(=O)n(-c2ccccc2)n1C`, the TGI in assay [5], in [6], in assay [7], in assay [8], in [9] and in assay [10] was more than 100 µM each time. In addition, the concentration for total growth inhibition (TGI) in assay [11] and in assay [12] was more than 100 µM throughout.
Consider `O=C(Nc1sccc1S(=O)(=O)c1ccc(Cl)cc1)c1ccccc1`, for which the total growth inhibition concentration (TGI) in assay [5], in [6], in assay [7], in [8], in assay [9] and in assay [10] was more than 100 µM in each case. For the same molecule, the TGI in assay [11] and in assay [12] was more than 100 µM in each case.
As to `c1ccc(CCN2CCOCC2)nc1`, the TGI in [5], in [1], in assay [6], in assay [7], in assay [8] and in assay [9] was more than 100 µM throughout. Also, the total growth inhibition concentration (TGI) in [10], in [11] and in assay [12] was more than 100 µM in each case.
Take `Nc1cccc2c1C1=NNC(=O)CC1C2` (centres undefined): the concentration for total growth inhibition (TGI) in assay [1], in assay [6], in assay [2], in assay [9], in assay [3] and in assay [4] was more than 100 µM each time.
Regarding `O=C1C(c2c(O)[nH]c3ccccc23)=Nc2ccc(Br)cc21`, the TGI in assay [5] was 49.7 µM; in assay [1], more than 100 µM; in assay [6], 18.2 µM; in assay [7], 72.8 µM; in [8], more than 100 µM; in [9] it was more than 100 µM. Moreover, the TGI in assay [10] was 77 µM; in [11] it was more than 100 µM; in assay [12], 77.2 µM.
As for `CC(=O)N1CC(=O)NC1=S`, the TGI in assay [2], in [3] and in [4] was more than 100 µM each time.
Turning to `Cc1ccc([N+](=O)[O-])cc1S(=O)(=O)Nc1ccc(C2=NN(C(=O)c3ccccc3)C(c3cccs3)C2)cc1` (centres undefined), the total growth inhibition concentration (TGI) is more than 100 µM in assay [5]; more than 100 µM in [6]; more than 100 µM in assay [7]; more than 100 µM in assay [8]; more than 100 µM in assay [9]; 44 µM in assay [10]. The total growth inhibition concentration (TGI) in [11] is 77.4 µM; in assay [12] it was more than 100 µM.
Turning to `COc1c(O)c(O)c2c(c1O)C(=O)c1cc(C)cc(O)c1C2=O`, the TGI in [5] is more than 100 µM; in assay [1], more than 100 µM; in assay [6], more than 100 µM; in assay [7], 78.9 µM; in [8], more than 100 µM; in assay [9], 47.3 µM. Further, the TGI in [10] is 42 µM; in assay [11] it was more than 100 µM; in assay [12], more than 100 µM.
As to `N#CCCOCN(CO)c1nc(N(CO)COCCC#N)nc(N(CO)COCCC#N)n1`, the figures for the TGI in assay [2], in [3] and in assay [4] were 31.5 µM, 61.5 µM and 75.9 µM, respectively.
Take `CCOC(=O)C(=O)Nc1c(CC)cccc1C(C)CC` (centres undefined): the TGI in assay [1], in assay [2], in assay [3] and in assay [4] was more than 100 µM in each case.
Consider `Cc1nc2c(O)cc3c4c(n(Cc5ccccc5)c3c2nc1C)C(=O)CCC4`, for which the concentration for total growth inhibition (TGI) in [5], in [1], in [6], in assay [7], in assay [8] and in [9] was more than 100 µM in each case. For the same molecule, the TGI in assay [10] and in assay [11] was more than 100 µM in each case.
Turning to `COc1ccccc1/C=C/c1c(N)ncnc1Nc1cccc(Cl)c1`, the total growth inhibition concentration (TGI) in assay [5] was 0.97 µM; in assay [1], more than 100 µM; in [6], more than 100 µM; in [7] it was 44 µM; in [8] it was 33.1 µM; in assay [10], 42.5 µM. Further, the values for the total growth inhibition concentration (TGI) in assay [11] and in [12] were 55.8 µM and 35.7 µM, respectively.

The values above are taken from PubChem BioAssay (NCI).
